US20200352889A1, “CYSTATHIONINE COMPOSITIONS AND METHODS OF TREATMENT FOR HEALTH CONDITIONS” (THE REGENTS OF THE UNIVERSITY OF COLORADO, A BODY CORPORATE, priority 2011, published 2020)
“Also recorded” adds a separate entry of the source.

Assays:
293AD cells = experiment: Tunicamycin-induced cell death, LDH release and phase-contrast, 293AD cells; type: cell-based, human
Method: (§1) Cells were seeded in triplicate at ˜75% confluence and pre-treated with either PPG) (5 mM), Cystathionine (1 mM) or with just complete media (DMEM, 10% FBS) as a control. After 24 hr pre-treatment, cells looked normal, with minimal floating cells. Fresh media with 1% FBS was then added to each well, the cells were further treated with Tm (either 5 or 10 ug)/ml. After 18 hr. treatment with Tunicamycin, cells were photographed under phase-contrast with a Zeiss Axiovert 25 microscope for evidence of dead floating cells. Cells from the group treated solely with tunicamycin became strikingly hyper-refringent, detached from the substratum and floated in the media. […] To further evaluate a role for cystathionine in resisting the induction of cell death by tunicamycin, cell lysis was quantified by assaying lactate dehydrogenase (LDH) release. The enzyme activity was determined spectrophotometrically and the amount of enzyme leak was expressed as a percentage of the LDH activity observed in untreated control cells.
HepG2, 293AD and a23 cells were seeded in triplicate at ˜75% confluence and were pre-treated with either propargylglycine (PPG) (5 mM) or cystathionine (5 mM) in complete media (DMEM, 10% FBS). After 24 hours, fresh media with 1% FBS was added to each well. Cells were then further treated with tunicamycin (either 5 or 10 ug/ml) for 18 hr treatment. Cells were subsequently photographed under phase-contrast with a Zeiss Axiovert 25 microscope for evidence of dead floating cells. To quantify cell death the media supernatant was collected for LDH release assay using a kit from Roche Applied Science (Cat.No.11 644 793 001) according to the manufacturer's standard protocol where cytotoxicity (%)=((experimental value-low control/(high control-low control))×100.
as §1, with “24 hr.” for “24 hr”

a23 cells = experiment: Tunicamycin-induced cell death, LDH release, transsulfuration negative a23 cells; type: cell-based, Chinese hamster; details: CBS and CGL negative, p=0.7301
Source text: However, examination of a direct effect of exogenously added cystathionine is not currently possible in a whole animal model because of complications with the compounds solubility and rapid kinetics of its excretion. In order to investigate the direct effects of cystathionine against ER stress-induced cell death, the cytotoxicity of tunicamycin in the human embryonic kidney cell line 293AD and the human hepatoma cell line HepG2 in the presence and absence of both PPG and exogenously added cystathionine was examined. Preliminary experiments confirmed that both of these cell lines express both CBS and CGL (data not shown). In order to investigate the possible protective effects of cystathionine in the absence of transsulfuration, these experiments were repeated with the CBS and CGL negative Chinese hamster fibroblast line a23 (6).
Cells were seeded in triplicate at ˜75% confluence and pre-treated with either PPG) (5 mM), Cystathionine (1 mM) or with just complete media (DMEM, 10% FBS) as a control. […] To further evaluate a role for cystathionine in resisting the induction of cell death by tunicamycin, cell lysis was quantified by assaying lactate dehydrogenase (LDH) release. The enzyme activity was determined spectrophotometrically and the amount of enzyme leak was expressed as a percentage of the LDH activity observed in untreated control cells. […]

CGL = molecular target: T1, CGL (Mus musculus, UniProt Q8VCN5); experiment: Daily injection of PPG in WT mice, plasma cystathionine, Hcy, methionine and cysteine; type: in vivo
T1 construct: endogenous in cells; host or cells: C57BL/6J wild-type mice (whole animal, in vivo)
Method: It is believed that the longevity of this cystathionine accumulation with repeated injections of PPG over time in mice has not been properly examined. Consequently, daily injections of PPG were given to WT mice (n=7) each morning over a period of 4 days. Plasma samples were taken from these mice in the evening of each day by non-lethal tail bleed and the levels of cystathionine, Hcy, methionine and cysteine were determined (FIG. 4). Inactivation of CGL was observed and was accompanied by a 56-fold increase in the plasma level of cystathionine on day 1. […] Cysteine levels subsequently returned to near normal levels as the effects of the PPG treatment diminished.
Propensity for hepatic steatosis was examined in HO and wild type control mice using a methionine-choline deficient amino acid defined and iron supplemented diet (#518810 Dyets Inc., Bethlehem, Pa.)) and an isocaloric amino acid defined Lombardi choline sufficient diet with methionine control diet (518754, Dyets Inc., Bethlehem, Pa.) for 19 days as described previously (7). Experimental hypercystathionemia was induced by IP injection of the CGL inactivator PPG (50 mg·day-1·kg-1) as described previously (8). ER stress was induced in mice by a single IP injection with tunicamycin at 0.5 mg/kg body weight (volume <=1.0 ml). Control mice were sham treated by injection with an equal volume of PBS (9,10).
Determination of plasma levels of methionine cycle metabolites was performed as described previously (11).
Previous work by Abeles and Walsh synthesized and tested a range of acetylenic substrates capable of irreversible inactivation of CGL. […] For our purposes this method has the additional benefit of allowing us to investigate the possible protective effects of elevated cystathionine in isolation from its role as a cysteine donor. To our knowledge, the longevity of this cystathionine accumulation with repeated injections of PPG over time in mice has not been examined. Daily injections of PPG to WT mice were given (n=7) each morning over a period of 4 days. Plasma samples were taken from these mice in the evening of each day by non-lethal tail bleed and the levels of cystathionine, Hcy, methionine and cysteine were determined (FIG. 4). It was observed that inactivation of CGL was accompanied by a 56-fold increase in the plasma level of cystathionine on day 1. […] Cysteine levels subsequently returned to near normal levels as the effects of the PPG treatment diminished. These experiments allowed us to define an optimal time frame for examining the possible protective effects of PPG mediated cystathionine accumulation in WT mice. The effect of PPG on liver health was assessed by determining ALT values before PPG treatment and at each subsequent time point studied.

[1] = daily PPG IP, declined back to normal as PPG efficacy diminished

T1 sequence (Q8VCN5 whole entry): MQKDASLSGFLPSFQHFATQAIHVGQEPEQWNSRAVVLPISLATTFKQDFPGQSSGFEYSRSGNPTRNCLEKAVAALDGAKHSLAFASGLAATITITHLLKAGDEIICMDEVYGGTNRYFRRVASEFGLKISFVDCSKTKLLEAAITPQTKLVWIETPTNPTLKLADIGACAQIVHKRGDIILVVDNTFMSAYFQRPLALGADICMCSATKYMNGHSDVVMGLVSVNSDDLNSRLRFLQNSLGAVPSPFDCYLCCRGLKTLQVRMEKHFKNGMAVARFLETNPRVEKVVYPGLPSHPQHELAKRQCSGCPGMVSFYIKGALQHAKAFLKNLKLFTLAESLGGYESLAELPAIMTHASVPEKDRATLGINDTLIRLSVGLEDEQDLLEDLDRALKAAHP

`C#CCC(N)C(=O)O` (racemic) [PPG, D,L-2-amino-4-pentynoic acid] was tested, and the “prevention of tunicamycin-induced cell death (LDH release)” value (293AD cells; 293AD cells, tunicamycin 5 μg/ml 18 hr, 24 hr pre-treatment PPG 5 mM) was “largely prevented”, the “reduction in cell death (LDH release)” value (293AD cells; 293AD cells, tunicamycin 10 μg/ml 18 hr, 24 hr pre-treatment PPG 5 mM or cystathionine 1 mM, p<0.0001) was 11 fold and the “floating dead cells (phase-contrast)” value (293AD cells; tunicamycin 18 hr after PPG or cystathionine pre-treatment) was “No floating dead cells were observed; also recorded: not evident”. For the same compound, the “cytoprotection against tunicamycin induced cell death” value (a23 cells) was “no significant cytoprotection”, the “increase in the plasma level of cystathionine” value (“increase in the plasma level” below) (CGL; daily PPG IP 50 mg/kg/day, day 1, vs untreated animals) was 56 fold and the “increase in the plasma level” value (CGL; daily PPG IP, day 3) was 30 fold. For the same compound, the “increase in the plasma level” value (CGL; daily PPG IP, day 4, vs untreated animals) was 8 fold, the plasma methionine (CGL; [1]) was “relatively mild elevation” and the “plasma total Hcy (tHcy)” value (CGL; [1]) was “relatively mild elevation”. The plasma cysteine levels (CGL; daily PPG IP, first and second days) was “concomitant decrease” and the plasma cystathionine accumulation (CGL; daily PPG IP, second day) was “maximal accumulation persisted”.
